In BindingDB's records for doi:10.1016/j.bmcl.2012.02.027 (Memorial Sloan-Kettering Cancer Center, 2012):
pIC50: −log10 of the molar value.

Target: Presenilin-1 (Homo sapiens, UniProt P49768)
Test: Inhibition of gamma-secretase in cell-free human HeLa membrane assessed as amyloid beta-42 production using APP as substrate

pIC50: 9.52
SMILES: CC(C)C[C@H](NC(=O)[C@H](Cc1ccccc1)C[C@@H](O)[C@H](Cc1ccccc1)NC(=O)OC(C)(C)C)C(=O)N[C@@H](Cc1ccc(C(=O)c2ccccc2)cc1)C(=O)NCCCCCNC(=O)CCCC[C@@H]1SC[C@@H]2NC(=O)N[C@@H]21
